Common to all, as to assay: NCI-60 cell line screen, 48 h
Assay [1] concerns 786-0 renal.
Assay [2] has as its system DU-145 prostate.
The subject of assay [3] is HCT-15 colon.
Assay [4] has as its system K-562 leukemia.
The test system of assay [5] is MDA-MB-231 breast.
Assay [6] relates to NCI-H226 lung.
The subject of assay [7] is RXF 393 renal.
Assay [8] has as its system SF-268 CNS.
Assay [9] has as its system SF-539 CNS.
For assay [10], the system named is SW-620 colon.

The structures appear in SMILES notation.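 Interpolation was linear, between the two tested concentrations surrounding the appropriate level; five concentrations were tested over 48 hours in 96-well plates. At the GI50, growth is halved. The concentration for full growth arrest is given as TGI.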

Take `CCOC(=O)c1c(C)nc2c(c1N)CC(=O)N2CCc1ccccc1`: the GI50 in [1] is 0.466 µM; in assay [2] it was 0.881 µM; in assay [3], 0.485 µM; in [4], 0.424 µM; in [5] it was 0.896 µM; in assay [6], 18.7 µM. Besides, the GI50 in [7] is 4.05 µM; in assay [8], 0.477 µM; in [9], 0.324 µM; in [10] it was 0.47 µM. Also, the TGI in assay [1] is 17.1 µM; in assay [2], 16 µM; in assay [3] it was 13.6 µM; in assay [4] it was more than 100 µM; in assay [5] it was 14 µM; in assay [6] it was 69 µM. Also, the TGI came to 15.3 µM in assay [7], 19 µM in assay [8], 11.9 µM in assay [9] and 11.1 µM in assay [10].

With `Cc1ccc(C2=C(c3ccc(C)cc3)C3(c4ccc(C)cc4)C4C(=O)c5ccccc5C(=O)C4C2(c2ccc(C)cc2)S3=O)cc1` (stereo not given), the GI50 in [1] is 69.5 µM; in [2] it was more than 100 µM; in assay [3], more than 100 µM; in [4], more than 100 µM; in assay [5], 60 µM; in assay [6], more than 100 µM. The GI50 was 94.4 µM in assay [7], more than 100 µM in assay [8], more than 100 µM in assay [9] and more than 100 µM in assay [10]. For the same compound, the TGI in assay [1], in assay [2], in assay [3], in assay [4], in [5] and in assay [6] was more than 100 µM throughout. The TGI in [7], in assay [8], in assay [9] and in [10] was more than 100 µM in each case.

Take `CCc1cc2ncc(CN3CCN(c4ccc(C(=O)NC)nc4)CC3)cc2[nH]c1=O`: the GI50 is 79.6 µM in assay [1]; more than 100 µM in [2]; 65.4 µM in [3]; 50 µM in assay [4]; 82 µM in assay [5]; 14.7 µM in assay [6]. The GI50 in [7] was 17 µM; in assay [8], more than 100 µM; in assay [9], 66.9 µM; in assay [10] it was more than 100 µM. The TGI in assay [1], in assay [2], in assay [3], in assay [4], in [5] and in assay [6] was more than 100 µM in each case. The TGI in [7], in [8], in assay [9] and in assay [10] was more than 100 µM throughout.

Consider `O=c1c(Br)cc2c(-c3ccccc3)c3cc(Br)c(O)c(Br)c3oc-2c1Br`, for which the TGI in assay [1], in assay [2], in [3], in assay [4], in assay [5] and in assay [6] was more than 100 µM throughout. In addition, the TGI in assay [7], in assay [8], in assay [9] and in assay [10] was more than 100 µM in each case.

`CN1CCN(c2nc(NCCCNc3ccnc4cc(Cl)ccc34)c3ccccc3n2)CC1`: the GI50 was 3.58 µM in assay [1]; 6.11 µM in assay [2]; 5.33 µM in assay [3]; 2.64 µM in assay [4]; 2.76 µM in assay [5]; 18.9 µM in [6]. The GI50 in assay [7] is 1.49 µM; in assay [8], 4.71 µM; in assay [9], 1.74 µM; in assay [10], 3.23 µM. For the same compound, the TGI is 12.9 µM in [1]; 18.4 µM in assay [2]; 18.8 µM in assay [3]; 10.9 µM in assay [4]; 8.94 µM in assay [5]; 41.4 µM in assay [6]. Also, the TGI turned out to be 3.72 µM in assay [7], 19.2 µM in assay [8], 3.5 µM in assay [9] and 12.8 µM in assay [10].

In the case of `C=C(CC(=O)O)C(=O)O` (tested in a mixture with another compound), the GI50 in assay [1], in assay [2], in assay [3], in assay [4], in [5] and in assay [6] was more than 50 µg/mL each time. In addition, the GI50 in [7] was 10.2 µg/mL; in [8], more than 50 µg/mL; in assay [9] it was more than 50 µg/mL; in assay [10] it was more than 50 µg/mL. In addition, the TGI in assay [1], in assay [2], in assay [3], in [4], in assay [5] and in [6] was more than 50 µg/mL in each case. Moreover, the TGI in [7], in [8], in [9] and in assay [10] was more than 50 µg/mL in each case.

For the compound `Oc1cccc(/C=N/Nc2nnc(N/N=C/c3cccc(O)c3)c3ccccc23)c1`, the TGI in assay [1] came out at 38.5 µM; in assay [2], 66 µM; in assay [3], 39 µM; in assay [4], 47.6 µM; in assay [5] it was 35.8 µM; in [6] it was 30.7 µM. Further, the TGI in assay [7] was more than 100 µM; in [8] it was more than 100 µM; in assay [9] it was 34.6 µM; in assay [10] it was 56.8 µM.

`NC(N)=Nc1nc2ccc([N+](=O)[O-])cc2[nH]1`: the TGI in [1], in assay [2], in assay [3], in assay [4], in assay [5] and in [6] was more than 100 µM throughout. The TGI in [7], in [8], in [9] and in [10] was more than 100 µM each time.

In the case of `C[C@]12CC[C@H]3[C@@H](C[C@@H]4SC(Nc5ccccc5)=N[C@@]45CC(O)CC[C@]35C)[C@@H]1CCC2O` (stereo not given in full), the GI50 is 1.22 µM in [1]; 1.7 µM in assay [2]; 1.6 µM in [3]; 2.45 µM in [4]; 1.99 µM in assay [5]; 2.4 µM in assay [6]. Also, the GI50 was 0.798 µM in assay [7], 1.66 µM in assay [8], 1.19 µM in assay [9] and 2.27 µM in assay [10]. For the same compound, the TGI in assay [1] came out at 3.3 µM; in assay [2], 3.62 µM; in assay [3], 5.15 µM; in [4], 12.6 µM; in assay [5], 4.63 µM; in assay [6] it was 5.57 µM. For the same compound, the TGI in [7] came to 2.28 µM; in assay [8], 3.32 µM; in assay [9], 2.62 µM; in assay [10] it was 5.36 µM.

Source of the values: PubChem BioAssay (NCI).
